The source of these data is patent publication US20070014734A1, “Glucuronidated nebivolol metabolites” (priority 2005, published 2007).

Each structure is given as a SMILES string.

In test [1] the test system is Human Umbilical Vein Endothelial Cells (HUVEC). The experiment in a line: Acute NO release from HUVEC of white and black American donors, electrochemical nanosensors. Type of test: cell-based. The following applies: for Acute NO Release, Black Donors NO: HUVEC from black American donors; for Acute NO Release, Black Donors NO / Acute NO Release, White Donors NO: acute treatment 1.0 μM, mean±S.D. (n=5); for Acute NO Release, White Donors NO: HUVEC from white donors; for Acute [NO]/[ONOO−] Release Ratio, Black Donors / Acute [NO]/[ONOO−] Release Ratio, White Donors: ratio of NO (Table 1) to ONOO− (Table 3); for NO release after acute treatment (in words): endothelial cells from both white and black American donors, 1.0 μM. As to the method:
The acute effects of nebivolol racemate, its separate enantiomers, and four stereoselective glucuronide metabolites on endothelial-dependent NO release were tested in Human Umbilical Vein Endothelial Cells (HUVEC). The tissue is isolated from normotensive white and black American donors with matched risk factor profiles. Production of NO is recorded using electrochemical nanosensors following acute treatment with the drugs at 1.0 μM (n=5).
The donors were between 20-25 years of age, with a mean body mass index (in kg/m^2), of 22.6±1.4 for white donors and 23.1±1.7 for black donors. The identification of race was defined by self report. For FIGS. 1-3, the HUvEC samples were obtained from American Type Culture Collection (Manassas, Va.).
The baseline is stabilized after about 20 seconds.
Nanosensors are prepared from carbon fibers.

The subject of a further test is human endothelial cells. The experiment in a line: Acute ONOO− (peroxynitrite) release from human endothelial cells of white and black donors. Type of test: cell-based. As to conditions: acute treatment; for Acute ONOO− Release, Black Donors ONOO−: endothelial cells from black donors; for Acute ONOO− Release, White Donors ONOO−: endothelial cells from white donors; for ONOO− (peroxynitrite) release (in words): human endothelial cells. From the text:
The donors were between 20-25 years of age, with a mean body mass index (in kg/m^2), of 22.6±1.4 for white donors and 23.1±1.7 for black donors. The identification of race was defined by self report. For FIGS. 1-3, the HUvEC samples were obtained from American Type Culture Collection (Manassas, Va.). […] However, the amount of OONO^− produced for any of the metabolites was less than that observed for nebivolol. The ratio of NO to OONO^− produced by nebivolol and its glucuronide metabolites was similar following acute administration (Table 4).

In the case of `O=C(O)C1OC(OC(CNCC(O)C2CCc3cc(F)ccc3O2)C2CCc3cc(F)ccc3O2)C(O)C(O)C1O` (single isomer, unassigned) [G-UDb, l-Nebivolol-11-O-β-D-glucuronide], in test [1], the “Acute NO Release, Black Donors NO” value is recorded as 139 ± 12 nM; the “Acute NO Release, White Donors NO” value amounted to 206 ± 12 nM; the “Acute [NO]/[ONOO−] Release Ratio, Black Donors” value came to 0.618; the “Acute [NO]/[ONOO−] Release Ratio, White Donors” value is 1.144. For the same compound, in the test with human endothelial cells, the “Acute ONOO− Release, Black Donors ONOO−” value turned out to be 225 ± 16 nM; the “Acute ONOO− Release, White Donors ONOO−” value was 180 ± 13 nM; the “ONOO− (peroxynitrite) release (in words)” value is reported as “greatest activity”.

Consider `OC(CNCC(O)C1CCc2cc(F)ccc2O1)C1CCc2cc(F)ccc2O1` (racemic) [nebivolol, α,α′-[iminobismethylene]bis[6-fluoro-3,4-dihydro-2H-1-benzopyran-2-methanol]], for which, in test [1], the “Acute NO Release, Black Donors NO” value is reported as 148 ± 10 nM; the “Acute NO Release, White Donors NO” value was 218 ± 11 nM; the “Acute [NO]/[ONOO−] Release Ratio, Black Donors” value was 0.612; the “NO release after acute treatment (in words)” value (“NO release … (in words)” below) was “marked improvement”. Further, the “Acute [NO]/[ONOO−] Release Ratio, White Donors” value in test [1] stood at 1.130. Further, in the test on human endothelial cells, the “Acute ONOO− Release, Black Donors ONOO−” value is 242 ± 17 nM and the “Acute ONOO− Release, White Donors ONOO−” value was found to be 193 ± 16 nM.

Take `O=C(O)C1OC(OC(CNCC(O)C2CCc3cc(F)ccc3O2)C2CCc3cc(F)ccc3O2)C(O)C(O)C1O` [G-UDa, d-Nebivolol-11-O-β-D-glucuronide]: in test [1], the “Acute NO Release, Black Donors NO” value turned out to be 144 ± 10 nM; the “Acute NO Release, White Donors NO” value is recorded as 202 ± 12 nM; the “Acute [NO]/[ONOO−] Release Ratio, Black Donors” value is 0.605; the “Acute [NO]/[ONOO−] Release Ratio, White Donors” value worked out at 1.122. In the test with human endothelial cells, the “Acute ONOO− Release, Black Donors ONOO−” value was 238 ± 22 nM; the “Acute ONOO− Release, White Donors ONOO−” value is recorded as 180 ± 16 nM; the “ONOO− (peroxynitrite) release (in words)” value was “greatest activity”.

Consider `O[C@@H](CNC[C@H](O)[C@H]1CCc2cc(F)ccc2O1)[C@@H]1CCc2cc(F)ccc2O1` [l-nebivolol, reference compound], for which, in test [1], the “Acute NO Release, Black Donors NO” value is recorded as 192 ± 9 nM; the “Acute NO Release, White Donors NO” value was determined as 268 ± 12 nM; the “Acute [NO]/[ONOO−] Release Ratio, Black Donors” value stood at 0.719; the “NO release … (in words)” value is given as “marked improvement”. Also, the “Acute [NO]/[ONOO−] Release Ratio, White Donors” value in test [1] is on record as 1.202. Also, in the test on human endothelial cells, the “Acute ONOO− Release, Black Donors ONOO−” value was 267 ± 13 nM and the “Acute ONOO− Release, White Donors ONOO−” value came out at 223 ± 17 nM.

Turning to `O=C(O)C1OC(OC(CNCC(O)C2CCc3cc(F)ccc3O2)C2CCc3cc(F)ccc3O2)C(O)C(O)C1O` [G-UDc, d-Nebivolol-11′-O-β-D-glucuronide], in test [1], the “Acute NO Release, Black Donors NO” value is given as 129 ± 10 nM; the “Acute NO Release, White Donors NO” value is 188 ± 12 nM; the “Acute [NO]/[ONOO−] Release Ratio, Black Donors” value amounted to 0.632; the “Acute [NO]/[ONOO−] Release Ratio, White Donors” value was 1.133. Moreover, in the test on human endothelial cells, the “Acute ONOO− Release, Black Donors ONOO−” value is on record as 204 ± 13 nM and the “Acute ONOO− Release, White Donors ONOO−” value turned out to be 166 ± 13 nM.

Take `O[C@H](CNC[C@@H](O)[C@H]1CCc2cc(F)ccc2O1)[C@@H]1CCc2cc(F)ccc2O1` [d-nebivolol, reference compound]: in test [1], the “Acute NO Release, Black Donors NO” value is listed as 87 ± 6 nM; the “Acute NO Release, White Donors NO” value was 127 ± 17 nM; the “Acute [NO]/[ONOO−] Release Ratio, Black Donors” value amounted to 0.750; the “NO release … (in words)” value is recorded as “marked improvement”. For the same compound, the “Acute [NO]/[ONOO−] Release Ratio, White Donors” value in test [1] is listed as 1.460. In the test on human endothelial cells, the “Acute ONOO− Release, Black Donors ONOO−” value is listed as 116 ± 6 nM and the “Acute ONOO− Release, White Donors ONOO−” value is reported as 87 ± 6 nM.

For the compound `O=C(O)C1OC(OC(CNCC(O)C2CCc3cc(F)ccc3O2)C2CCc3cc(F)ccc3O2)C(O)C(O)C1O` (single isomer, unassigned) [G-UDd, l-Nebivolol-11′-O-β-D-glucuronide], in test [1], the “Acute NO Release, Black Donors NO” value came to 117 ± 8 nM; the “Acute NO Release, White Donors NO” value was determined as 161 ± 11 nM; the “Acute [NO]/[ONOO−] Release Ratio, Black Donors” value is 0.606; the “Acute [NO]/[ONOO−] Release Ratio, White Donors” value came out at 1.193. Besides, in the test on human endothelial cells, the “Acute ONOO− Release, Black Donors ONOO−” value turned out to be 193 ± 17 nM and the “Acute ONOO− Release, White Donors ONOO−” value turned out to be 135 ± 13 nM.
